Where two headings read alike, the source gives them in different places.
Assays:
GDP-loaded KRAS G12D = GDP-loaded KRAS G12D (Homo sapiens, UniProt P01116, G12D); assay: KRAS G12D (GDP) biochemical assay, TR-FRET probe displacement; type: binding
Protocol: Example A. KRAS G12D (GDP) Biochemical Assay
Compounds were tested for binding to GDP-loaded KRAS G12D in a 384-well assay format using a TR-FRET probe displacement assay in buffer consisting of 50 mM Hepes (pH 7.4), 150 mM NaCl, 5 mM MgCl2 and 0.005% Tween-20. […] Compounds were serially diluted (1:3) in DMSO. The LabCyte ECHO Acoustic dispenser system was used to pre-spot the assay plates (384-well Non-Binding Surface plates, Corning, Catalog #3824) with 50 nL of compound. The compounds were pre-incubated with 5 μL of 2× final enzyme concentration for 30 minutes before adding 5 μL of 2× final concentration of Eu-streptavidin and TR-FRET probe (10 μL final reaction volume). The plates were incubated at room temperature for 2 hours before measuring TR-FRET ratio on the Envision plate reader. IC50 values were defined as the compound concentration that causes a 50% decrease in TR-FRET ratio and were calculated using a sigmoidal dose-response model to generate curve fits.

GP2D (KRAS G12D) cells = assay: 2D cell viability assay (CellTiter-Glo); type: cell-based; settings: 96 h
Protocol: Example B. 2D Cell Viability Assay
Compounds were tested in a 384-well format for their ability to inhibit the viability of GP2D (KRAS G12D) cells in 2D assays. Compounds were serially diluted (1:3) in DMSO. The LabCyte ECHO Acoustic dispenser system was used to pre-spot assay plates with 200 nL of test molecule per well. 1000 cells/well (40 μL volume per well) in RPMI medium with 10% FBS, and Penicillin-Streptomycin-Glutamine were plated in pre-spotted 384-well plates (Greiner, Catalog #781076) on the BioTEK EL406 liquid dispenser with a 5 μL dispensing cassette (BioTek 7170011). The plates were incubated at 37° C., 5% CO2 for 4 days before addition of CellTiter-Glo (CTG) reagent and measurement of luminescence signal. EC50 values were defined as the compound concentration that causes a 50% decrease in luminescence signal and were calculated using a sigmoidal dose-response model to generate curve fits.

[1] = 0.5 nM enzyme, 30 min pre-incubation, 2 h incubation, TR-FRET ratio, read-out: G12D IC50
[2] = GP2D cells, 4 days, CellTiter-Glo luminescence, read-out: G12D 2D EC50

Chain of GDP-loaded KRAS G12D (P01116 1-188 isoform P01116-2 G12D): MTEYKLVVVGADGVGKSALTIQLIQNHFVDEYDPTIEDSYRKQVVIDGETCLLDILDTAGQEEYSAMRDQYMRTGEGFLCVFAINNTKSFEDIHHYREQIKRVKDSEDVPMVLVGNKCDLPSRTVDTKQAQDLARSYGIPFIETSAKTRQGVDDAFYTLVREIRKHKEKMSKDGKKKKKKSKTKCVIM

SMILES	IC50 (GDP-loaded KRAS G12D; [1]) [nM]	EC50 (GP2D (KRAS G12D) cells; [2]) [nM]	IC50 (GDP-loaded KRAS G12D) [nM]	EC50 (GP2D (KRAS G12D) cells; GP2d, read-out: G12D 2D EC50 (nM)) [nM]
C#Cc1c(F)ccc2cc(O)cc(-c3c(F)c4c5c(nc(OC[C@@]67CCCN6C[C@H](F)C7)nc5c3F)N3C[C@H]5CC[C@H](N5)[C@H]3CCC4)c12 (atropisomer, axis not shown; (aR)) [Example 28-P, (R)-4-((1S,4R,15aR)-10,12-difluoro-8-(((2R,7aS)-2-fluorotetrahydro-1H-pyrrolizin-7a(5H)-yl)methoxy)-2,3,4,5,13,14,15,15a-octahydro-1H-1,4-epiminoazepino[1′,2′:1,8]azocino[2,3,4-de]quinazolin-11-yl)-5-ethynyl-6-fluoronaphthalen-2-ol]	0.07	0.13	–	–
C#Cc1c(F)ccc2cc(O)cc(-c3nc4c5c(nc(OC[C@]6(C)CN(C)CC[C@@H]6C(F)F)nc5c3F)N3C[C@H]5CC[C@H](N5)[C@H]3CCC4)c12 [Example 74-P, 4-((6aR,7S,10R)-13-(((3S,4S)-4-(difluoromethyl)-1,3-dimethylpiperidin-3-yl)methoxy)-1-fluoro-5,6,6a,7,8,9,10,11-octahydro-4H-3,11a,12,14,15-pentaaza-7,10-methanocyclohepta[4,5]cycloocta[1,2,3-de]naphthalen-2-yl)-5-ethynyl-6-fluoronaphthalen-2-ol]	0.03	0.15	–	–
C#Cc1c(F)ccc2cccc(-c3nc4c5c(nc(OC[C@@]67CCCN6C[C@H](F)C7)nc5c3F)N3C[C@H]5CC[C@@H]([C@H]3CCC4)N5Cc3oc(=O)oc3C(C)(C)C)c12 [Example 6, 4-(tert-butyl)-5-(((6aR,7S,10R)-2-(8-ethynyl-7-fluoronaphthalen-1-yl)-1-fluoro-13-(((2R,7aS)-2-fluorotetrahydro-1H-pyrrolizin-7a(5H)-yl)methoxy)-5,6,6a,7,8,9,10,11-octahydro-4H-3,11a,12,14,15-pentaaza-7,10-methanocyclohepta[4,5]cycloocta[1,2,3-de]naphthalen-15-yl)methyl)-1,3-dioxol-2-one]	31	26	–	–
C#Cc1c(F)ccc2cccc(-c3nc4c5c(nc(OC[C@@]67CCCN6C[C@H](F)C7)nc5c3F)N3C[C@H]5CC[C@@H]([C@H]3CCC4)N5Cc3c(C)oc(=O)n3C)c12 [Example 5, 4-(((6aR,7S,10R)-2-(8-ethynyl-7-fluoronaphthalen-1-yl)-1-fluoro-13-(((2R,7aS)-2-fluorotetrahydro-1H-pyrrolizin-7a(5H)-yl)methoxy)-5,6,6a,7,8,9,10,11-octahydro-4H-3,11a,12,14,15-pentaaza-7,10-methanocyclohepta[4,5]cycloocta[1,2,3-de]naphthalen-15-yl)methyl)-3,5-dimethyloxazol-2(3H)-one]	4.7	78	–	–
C#Cc1c(F)ccc2cc(O)cc(-c3c(F)c4c5c(nc(OC[C@]6(C)CN(C)CC[C@@H]6C(F)F)nc5c3F)N3C[C@H]5CC[C@H](N5)[C@H]3CCC4)c12 (atropisomer, axis not shown; (aR)) [Example 78-P, (R)-4-((1S,4R,15aR)-8-(((3S,4S)-4-(difluoromethyl)-1,3-dimethylpiperidin-3-yl)methoxy)-10,12-difluoro-2,3,4,5,13,14,15,15a-octahydro-1H-1,4-epiminoazepino[1′,2′:1,8]azocino[2,3,4-de]quinazolin-11-yl)-5-ethynyl-6-fluoronaphthalen-2-ol]	0.04	0.14	–	–
Oc1cc(-c2nc3c4c(nc(OC[C@@]56CCCN5C[C@H](F)C6)nc4c2F)N2C[C@H]4CC[C@H](N4)[C@H]2CCC3)c2c(OC(F)(F)F)c(F)ccc2c1 [Example 18-P, 6-fluoro-4-((6aR,7S,10R)-1-fluoro-13-(((2R,7aS)-2-fluorotetrahydro-1H-pyrrolizin-7a(5H)-yl)methoxy)-5,6,6a,7,8,9,10,11-octahydro-4H-3,11a,12,14,15-pentaaza-7,10-methanocyclohepta[4,5]cycloocta[1,2,3-de]naphthalen-2-yl)-5-(trifluoromethoxy)naphthalen-2-ol]	0.06	0.24	–	–
C#Cc1c(F)ccc2cc(O)cc(-c3nc4c5c(nc(OC[C@@]67CCCN6C[C@H](F)C7)nc5c3F)N3C[C@H]5CC[C@H](N5)[C@@H]3[C@H]3CCC[C@@H]43)c12 [Example 42-P, 5-ethynyl-6-fluoro-4-((3aS,3bS,4S,7R,14bR)-12-fluoro-10-(((2R,7aS)-2-fluorotetrahydro-1H-pyrrolizin-7a(5H)-yl)methoxy)-2,3,3a,3b,4,5,6,7,8,14b-decahydro-1H-8a,9,11,14,15-pentaaza-4,7-methanocyclopenta[d]naphtho[1,8-ab]heptalen-13-yl)naphthalen-2-ol]	0.15	1.7	–	–
C#Cc1c(F)ccc2cc(O)cc(-c3nc4c5c(nc(OC[C@@]67CCCN6C[C@H](F)C7)nc5c3F)N3C[C@H]5CC[C@@H]([C@@H]3[C@@H](C)C4)N5Cc3oc(=O)oc3C)c12 [Example 7, 4-(((5S,5aS,6S,9R)-2-(8-ethynyl-7-fluoro-3-hydroxynaphthalen-1-yl)-1-fluoro-12-(((2R,7aS)-2-fluorotetrahydro-1H-pyrrolizin-7a(5H)-yl)methoxy)-5-methyl-4,5,5a,6,7,8,9,10-octahydro-3,10a,11,13,14-pentaaza-6,9-methanonaphtho[1,8-ab]heptalen-14-yl)methyl)-5-methyl-1,3-dioxol-2-one]	2.8	0.18	–	–
C#Cc1c(F)ccc2cccc(-c3nc4c5c(nc(OC[C@@]67CCCN6C[C@H](F)C7)nc5c3F)N3C[C@H]5CC[C@@H]([C@H]3CCC4)N5Cc3oc(=O)oc3-c3ccccc3)c12 [Example 4, 4-(((6aR,7S,10R)-2-(8-ethynyl-7-fluoronaphthalen-1-yl)-1-fluoro-13-(((2R,7aS)-2-fluorotetrahydro-1H-pyrrolizin-7a(5H)-yl)methoxy)-5,6,6a,7,8,9,10,11-octahydro-4H-3,11a,12,14,15-pentaaza-7,10-methanocyclohepta[4,5]cycloocta[1,2,3-de]naphthalen-15-yl)methyl)-5-phenyl-1,3-dioxol-2-one]	3.3	2.3	–	–
C#Cc1c(F)ccc2cc(OC(=O)N(C)C)cc(-c3nc4c5c(nc(OC[C@@]67CCCN6C[C@H](F)C7)nc5c3F)N3C[C@H]5CC[C@@H]([C@@H]3[C@@H](C)C4)N5Cc3oc(=O)oc3C)c12 [Example 51, 5-ethynyl-6-fluoro-4-((5S,5aS,6S,9R)-1-fluoro-12-(((2R,7aS)-2-fluorotetrahydro-1H-pyrrolizin-7a(5H)-yl)methoxy)-5-methyl-14-((5-methyl-2-oxo-1,3-dioxol-4-yl)methyl)-4,5,5a,6,7,8,9,10-octahydro-3,10a,11,13,14-pentaaza-6,9-methanonaphtho[1,8-ab]heptalen-2-yl)naphthalen-2-yl dimethylcarbamate]	–	–	> 100	34
C#Cc1c(F)ccc2cc(O)cc(-c3c(F)c4c5c(nc(OC[C@@]67CCCN6C[C@H](F)C7)nc5c3F)N3C[C@H]5CC[C@H](N5)[C@H]3CC4)c12 [Example 37-P, 4-((1S,4R,11R,14aR)-10,12-difluoro-8-(((2R,7aS)-2-fluorotetrahydro-1H-pyrrolizin-7a(5H)-yl)methoxy)-1,2,3,4,5,13,14,14a-octahydro-1,4-epiminoazepino[1′,2′:1,7]azepino[2,3,4-de]quinazolin-11-yl)-5-ethynyl-6-fluoronaphthalen-2-ol]	0.07	0.26	–	–
[2H]C([2H])([2H])N1CC[C@H](C(F)F)[C@](C)(C([2H])([2H])Oc2nc3c4c(nc(-c5cc(O)cc6ccc(F)c(C#C)c56)c(F)c4n2)CCC[C@@H]2[C@@H]4CC[C@H](CN32)N4)C1 [Example 75-P, 4-((6aR,7S,10R)-13-(((3S,4S)-4-(difluoromethyl)-3-methyl-1-(methyl-d3)piperidin-3-yl)methoxy-d2)-1-fluoro-5,6,6a,7,8,9,10,11-octahydro-4H-3,11a,12,14,15-pentaaza-7,10-methanocyclohepta[4,5]cycloocta[1,2,3-de]naphthalen-2-yl)-5-ethynyl-6-fluoronaphthalen-2-ol]	0.03	0.1	–	–
C#Cc1c(F)ccc2cc(NCc3oc(=O)oc3C)cc(-c3nc4c5c(nc(OC[C@@]67CCCN6C[C@H](F)C7)nc5c3F)N3C[C@H]5CC[C@@H]([C@H]3CCC4)N5Cc3oc(=O)oc3C)c12 [Example 70, 4-(((5-ethynyl-6-fluoro-4-((6aR,7S,10R)-1-fluoro-13-(((2R,7aS)-2-fluorotetrahydro-1H-pyrrolizin-7a(5H)-yl)methoxy)-15-((5-methyl-2-oxo-1,3-dioxol-4-yl)methyl)-5,6,6a,7,8,9,10,11-octahydro-4H-3,11a,12,14,15-pentaaza-7,10-methanocyclohepta[4,5]cycloocta[1,2,3-de]naphthalen-2-yl)naphthalen-2-yl)amino)methyl)-5-methyl-1,3-dioxol-2-one]	–	0.31	–	–
